Experiment [1] has as its target PI3Kδ (p110δ/p85α) Recombinant Human Protein (Homo sapiens (Human), UniProt O00329). Description: PI3Kδ Scintillation Proximity Assay. Type of experiment: biochemical. The conditions noted are these: read-out: PI3K-delta SPA IC50. From the text: Example C. PI3Kδ Scintillation Proximity Assay
[γ-^33P]ATP (10 mCi/mL) and Wheat Germ Agglutinin (WGA) YSi SPA Scintillation Beads was purchased from Perkin-Elmer (Waltham, Mass.). Lipid kinase substrate, D-myo-Phosphatidylinositol 4,5-bisphosphate (PtdIns(4,5)P2)D (+)-sn-1,2-di-O-octanoylglyceryl, 3-O-phospho linked (PIP2), CAS 204858-53-7, was purchased from Echelon Biosciences (Salt Lake City, Utah). PI3Kδ (p110δ/p85α) Recombinant Human Protein was purchased from Eurofins (St Charles, Mo.). ATP, MgCl2, DTT, EDTA, MOPS and CHAPS were purchased from Sigma-Aldrich (St. Louis, Mo.).
(§1) The kinase reaction was conducted in polystyrene 384-well Greiner Bio-one white plate from Thermo Fisher Scientific in a final volume of 25 μL. Inhibitors were first diluted serially in DMSO and added to the plate wells before the addition of other reaction components. The final concentration of DMSO in the assay was 2%. The PI3Kδ assay was carried out at room temperature in 20 mM MOPS, pH 6.7, 10 mM MgCl2, 5 mM DTT and CHAPS 0.03%. Reactions were initiated by the addition of ATP, the final reaction mixture consisted of 20 μM PIP2, 2 μM ATP, 0.5 μCi [γ-^33P] ATP, 3.4 nM PI3Kδ. Reactions were incubated for 120 min and terminated by the addition of 40 μL SPA beads suspended in quench buffer: 163 mM potassium phosphate pH 7.8, 20% glycerol, 25 mM EDTA. The final concentration of SPA beads is 1.0 mg/mL. After the plate sealing, plates were shaken overnight at room temperature and centrifuged at 1500 rpm for 10 min, the radioactivity of the product was determined by scintillation counting on Topcount (Perkin-Elmer). IC50 determination was performed by fitting the curve of percent of the solvent control activity versus the log of the inhibitor concentration using the GraphPad Prism 6.0 software.
In general terms: SPA uses beads or plates that emit light when radiolabelled molecules are held near them.

Experiment [2] has as its target PI3Kγ (p110γ) Recombinant Human Protein (Homo sapiens (Human), UniProt P48736). Description: PI3K-γ Scintillation Proximity Assay. The note with it: read-out: PI3K-gamma SPA IC50. Type of experiment: biochemical.
Description: Example B. PI3K-γ Scintillation Proximity Assay
[γ-^33P]ATP (10 mCi/mL) and Wheat Germ Agglutinin (WGA) YSi SPA Scintillation Beads was purchased from Perkin-Elmer (Waltham, Mass.). Lipid kinase substrate, D-myo-Phosphatidylinositol 4,5-bisphosphate (PtdIns(4,5)P2)D (+)-sn-1,2-di-O-octanoylglyceryl, 3-O-phospho linked (PIP2), CAS 204858-53-7, was purchased from Echelon Biosciences (Salt Lake City, Utah). PI3Kγ (p110γ) Recombinant Human Protein was purchased from Life technology (Grand Island, N.Y.). ATP, MgCl2, DTT, EDTA, MOPS and CHAPS were purchased from Sigma-Aldrich (St. Louis, Mo.).
as §1, with “PI3Kγ” for “PI3Kδ”, “13” for “3.4”, “PI3Kγ.” for “PI3Kδ.”

Among the data in patent US11352340B2, “Pyridine and pyridimine compounds as PI3K-gamma inhibitors” (Incyte Corporation, priority 2016, dated 2022) are IC50 values, retold here.

Where a name gives a salt, the structure may show the parent alone. Where only a bound is given, the exact number is not on record here.

Sequence of PI3Kδ (p110δ/p85α) Recombinant Human Protein (O00329 whole entry): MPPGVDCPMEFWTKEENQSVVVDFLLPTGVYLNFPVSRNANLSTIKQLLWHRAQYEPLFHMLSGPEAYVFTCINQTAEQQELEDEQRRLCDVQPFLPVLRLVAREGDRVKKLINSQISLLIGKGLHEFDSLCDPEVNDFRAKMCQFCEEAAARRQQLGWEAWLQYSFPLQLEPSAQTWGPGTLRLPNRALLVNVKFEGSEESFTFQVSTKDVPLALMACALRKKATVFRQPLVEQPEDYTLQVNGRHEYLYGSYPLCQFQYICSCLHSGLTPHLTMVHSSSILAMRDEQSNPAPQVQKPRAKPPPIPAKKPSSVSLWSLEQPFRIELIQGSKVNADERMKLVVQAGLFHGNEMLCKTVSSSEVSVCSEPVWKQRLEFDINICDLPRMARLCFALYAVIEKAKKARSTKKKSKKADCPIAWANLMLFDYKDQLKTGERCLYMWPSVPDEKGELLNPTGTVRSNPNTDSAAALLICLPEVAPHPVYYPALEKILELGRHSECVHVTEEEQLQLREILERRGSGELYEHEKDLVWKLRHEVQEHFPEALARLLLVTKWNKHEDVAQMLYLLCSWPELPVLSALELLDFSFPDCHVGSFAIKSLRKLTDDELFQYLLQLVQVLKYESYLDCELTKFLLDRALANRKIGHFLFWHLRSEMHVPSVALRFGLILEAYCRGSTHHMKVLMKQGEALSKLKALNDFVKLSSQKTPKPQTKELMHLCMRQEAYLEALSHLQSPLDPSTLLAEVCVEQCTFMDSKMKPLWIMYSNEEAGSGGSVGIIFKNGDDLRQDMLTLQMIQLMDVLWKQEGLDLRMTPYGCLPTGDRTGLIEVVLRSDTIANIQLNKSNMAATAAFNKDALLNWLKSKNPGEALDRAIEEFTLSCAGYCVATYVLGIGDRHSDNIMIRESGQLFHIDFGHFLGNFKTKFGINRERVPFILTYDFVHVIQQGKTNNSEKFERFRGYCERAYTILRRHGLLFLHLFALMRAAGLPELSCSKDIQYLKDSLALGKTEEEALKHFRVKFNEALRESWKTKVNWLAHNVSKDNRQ
Sequence of PI3Kδ (p110δ/p85α) Recombinant Human Protein (P27986 whole entry partner): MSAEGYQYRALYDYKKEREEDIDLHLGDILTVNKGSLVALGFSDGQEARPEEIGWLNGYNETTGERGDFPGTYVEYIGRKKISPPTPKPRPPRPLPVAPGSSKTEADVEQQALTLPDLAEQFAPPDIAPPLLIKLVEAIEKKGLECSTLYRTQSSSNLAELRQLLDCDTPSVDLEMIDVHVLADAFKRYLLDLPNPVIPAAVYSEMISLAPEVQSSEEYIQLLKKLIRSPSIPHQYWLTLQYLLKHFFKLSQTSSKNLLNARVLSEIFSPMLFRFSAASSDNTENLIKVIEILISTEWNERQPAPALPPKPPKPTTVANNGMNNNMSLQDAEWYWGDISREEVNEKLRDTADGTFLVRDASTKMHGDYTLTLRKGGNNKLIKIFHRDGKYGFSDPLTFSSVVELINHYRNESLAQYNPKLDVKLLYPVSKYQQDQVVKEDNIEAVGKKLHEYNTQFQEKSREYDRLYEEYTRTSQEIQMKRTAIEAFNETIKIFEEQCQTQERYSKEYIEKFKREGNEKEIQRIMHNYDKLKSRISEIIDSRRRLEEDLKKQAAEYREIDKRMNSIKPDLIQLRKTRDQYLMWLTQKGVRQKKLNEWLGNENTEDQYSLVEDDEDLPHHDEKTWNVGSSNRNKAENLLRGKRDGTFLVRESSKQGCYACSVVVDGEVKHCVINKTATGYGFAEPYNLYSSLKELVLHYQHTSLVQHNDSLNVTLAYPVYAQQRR
Sequence of PI3Kγ (p110γ) Recombinant Human Protein (P48736 whole entry): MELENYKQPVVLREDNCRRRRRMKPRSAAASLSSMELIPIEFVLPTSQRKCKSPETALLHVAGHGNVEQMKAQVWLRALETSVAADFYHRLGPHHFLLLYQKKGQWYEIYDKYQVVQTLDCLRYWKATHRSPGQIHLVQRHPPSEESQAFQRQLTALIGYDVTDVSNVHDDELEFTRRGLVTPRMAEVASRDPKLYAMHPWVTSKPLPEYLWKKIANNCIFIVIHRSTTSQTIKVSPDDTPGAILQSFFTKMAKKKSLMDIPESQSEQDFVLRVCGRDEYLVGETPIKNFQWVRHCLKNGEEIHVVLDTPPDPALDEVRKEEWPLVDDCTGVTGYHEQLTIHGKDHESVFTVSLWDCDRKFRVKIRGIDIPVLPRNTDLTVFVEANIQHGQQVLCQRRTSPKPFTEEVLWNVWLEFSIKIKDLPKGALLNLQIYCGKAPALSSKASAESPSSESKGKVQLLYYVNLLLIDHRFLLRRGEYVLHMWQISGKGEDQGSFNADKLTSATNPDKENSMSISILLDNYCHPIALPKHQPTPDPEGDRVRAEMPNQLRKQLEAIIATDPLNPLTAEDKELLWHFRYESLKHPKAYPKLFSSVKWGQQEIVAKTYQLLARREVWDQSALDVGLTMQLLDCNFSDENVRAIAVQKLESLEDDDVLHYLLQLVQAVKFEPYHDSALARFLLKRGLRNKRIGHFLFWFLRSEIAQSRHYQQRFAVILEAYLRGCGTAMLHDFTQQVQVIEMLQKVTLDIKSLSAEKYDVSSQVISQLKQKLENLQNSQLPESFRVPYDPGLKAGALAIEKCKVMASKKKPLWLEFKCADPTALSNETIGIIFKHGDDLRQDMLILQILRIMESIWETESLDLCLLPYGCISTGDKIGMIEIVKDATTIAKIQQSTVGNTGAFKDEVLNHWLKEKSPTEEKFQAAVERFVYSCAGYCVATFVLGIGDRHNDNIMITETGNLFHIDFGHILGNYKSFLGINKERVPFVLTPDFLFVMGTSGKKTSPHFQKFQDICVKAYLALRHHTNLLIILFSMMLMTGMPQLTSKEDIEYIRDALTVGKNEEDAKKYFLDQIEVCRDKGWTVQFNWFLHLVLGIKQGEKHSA

`CCCN(C)C(=O)c1cncc(-c2ccnc(-c3nc(C)c(C)[nH]3)c2)c1` [Example 210, 2′-(4,5-Dimethyl-1H-imidazol-2-yl)-N-methyl-N-propyl-3,4′-bipyridine-5-carboxamide]: the IC50 in experiment [1] is at most 500 nM; in experiment [2] it was at most 100 nM.
The like results for `Cn1nc(C(F)(F)F)cc1-c1ccnc(-c2ncc(-c3ccccc3)[nH]2)c1` [Example 14, 4-(1-Methyl-3-(trifluoromethyl)-1H-pyrazol-5-yl)-2-(5-phenyl-1H-imidazol-2-yl)pyridine trifluoroacetate salt] were, in that order, above 500 nM and above 500 nM.
The like results for `Cc1[nH]c(-c2cc(-c3cncc(S(C)(=O)=O)c3)ccn2)nc1C(=O)N(C)C` [Example 251, N,N,5-Trimethyl-2-[5-(methylsulfonyl)-3,4′-bipyridin-2′-yl]-1H-imidazole-4-carboxamide trifluoroacetate salt] were, in that order, at most 100 nM and at most 500 nM.
The like results for `Cc1[nH]c(-c2cc(-c3cncc(N4CCOCC4)c3)ccn2)nc1CNC1CCOCC1` [Example 283, N-{[5-Methyl-2-(5-morpholin-4-yl-3,4′-bipyridin-2′-yl)-1H-imidazol-4-yl]methyl}tetrahydro-2H-pyran-4-amine] were, in that order, at most 100 nM and above 500 nM.
Regarding `COCCNC(=O)c1cncc(-c2ccnc(-c3nc(C)c(C)[nH]3)c2)c1` [Example 166, 2′-(4,5-Dimethyl-1H-imidazol-2-yl)-N-(2-methoxyethyl)-3,4′-bipyridine-5-carboxamide trifluoroacetate salt], the IC50 in experiment [1] was at most 50 nM; in experiment [2] it was at most 100 nM.
In the same order, the values of `Cc1nc(-c2cc(-c3cncc(C(=O)N(C)CCCO)c3)ccn2)[nH]c1C` [Example 209, 2′-(4,5-Dimethyl-1H-imidazol-2-yl)-N-(3-hydroxypropyl)-N-methyl-3,4′-bipyridine-5-carboxamide] are at most 100 nM and at most 100 nM.
Regarding `O=C(Nc1cncc(-c2ccnc(-c3ncc(-c4ccccc4)[nH]3)c2)c1)c1ccccc1Cl` [Example 133, 2-Chloro-N-(2′-(5-phenyl-1H-imidazol-2-yl)-3,4′-bipyridin-5-yl)benzamide], the IC50 in experiment [1] was at most 100 nM; in experiment [2] it was at most 500 nM.
The like results for `Cc1nc(-c2cc(-c3cncc(C4=CCNC4)c3)ccn2)[nH]c1C` [Example 236, 5-(2,5-Dihydro-1H-pyrrol-3-yl)-2′-(4,5-dimethyl-1H-imidazol-2-yl)-3,4′-bipyridine] were, in that order, above 500 nM and above 500 nM.
In the same order, the values of `Cc1nc(-c2cc(C3=CCN(Cc4ccccc4)C3)ccn2)[nH]c1C` [Example 228, 4-(1-Benzyl-2,5-dihydro-1H-pyrrol-3-yl)-2-(4,5-dimethyl-1H-imidazol-2-yl)pyridine trifluoroacetate salt] are above 500 nM and above 500 nM.
As for `COc1cncc(-c2ccnc(-c3nnc[nH]3)c2)c1` [Example 72, 5-Methoxy-2′-(4H-1,2,4-triazol-3-yl)-3,4′-bipyridine], the IC50 in experiment [1] and in experiment [2] was above 500 nM throughout.
For `c1ccc(-c2cnc(-c3cc(-c4ccc(N5CCOCC5)nc4)ccn3)[nH]2)cc1` [Example 41, 4-(2′-(5-Phenyl-1H-imidazol-2-yl)-3,4′-bipyridin-6-yl)morpholine trifluoroacetate salt], the values for the IC50 in experiment [1] and in experiment [2] were at most 50 nM and above 500 nM, respectively.
On to `O=C(Nc1cncc(-c2ccnc(-c3ncc(-c4ccccc4)[nH]3)c2)c1)c1cccc(Cl)c1` [Example 134, 3-Chloro-N-(2′-(5-phenyl-1H-imidazol-2-yl)-3,4′-bipyridin-5-yl)benzamide], for which the IC50 in experiment [1] and in experiment [2] was above 500 nM each time.
As for `CCOC(=O)c1nc(-c2cc(-c3cncc(OC)c3)ccn2)[nH]c1C(F)(F)F` [Example 80, Ethyl 2-(5-methoxy-3,4′-bipyridin-2′-yl)-5-(trifluoromethyl)-1H-imidazole-4-carboxylate], the IC50 in experiment [1] and in experiment [2] was above 500 nM each time.
As for `Cc1[nH]c(-c2cc(-c3cncc(N4CCOCC4)c3)ccn2)nc1C(=O)N(C)C(C)C` [Example 259, N-Isopropyl-N,5-dimethyl-2-(5-morpholin-4-yl-3,4′-bipyridin-2′-yl)-1H-imidazole-4-carboxamide], the IC50 in experiment [1] and in experiment [2] was at most 500 nM each time.
For `Cc1nc(-c2cc(-c3cncc(C(=O)N4CCN(C)CC4)c3)ccn2)[nH]c1C` [Example 147, (2′-(4,5-Dimethyl-1H-imidazol-2-yl)-3,4′-bipyridin-5-yl)(4-methylpiperazin-1-yl)methanone], the IC50 in experiment [1] and in experiment [2] was at most 500 nM each time.
Consider `Cc1[nH]c(-c2cc(-c3cncc(N4CCOCC4)c3)ccn2)nc1CNC(C)C` [Example 285, N-{[5-Methyl-2-(5-morpholin-4-yl-3,4′-bipyridin-2′-yl)-1H-imidazol-4-yl]methyl}propan-2-amine], for which the IC50 is at most 500 nM in experiment [1] and above 500 nM in experiment [2].
In the same order, the values of `CC(C)(C)OC(=O)Nc1cncc(-c2ccnc(-c3ncc(-c4ccccc4)[nH]3)c2)c1` [Example 126, tert-Butyl [2′-(5-phenyl-1H-imidazol-2-yl)-3,4′-bipyridin-5-yl]carbamate] are at most 500 nM and at most 500 nM.
As to `CC(=O)N1CCC(c2c[nH]c(-c3cc(-c4cnn(Cc5ccc(Cl)cc5)c4)ccn3)n2)C1` (stereo not drawn) [Example 303, 2-[4-(1-Acetylpyrrolidin-3-yl)-1H-imidazol-2-yl]-4-[l-(4-chlorobenzyl)-1H-pyrazol-4-yl]pyridine trifluoroacetate salt], the IC50 was above 500 nM in experiment [1] and at most 500 nM in experiment [2].
The like results for `Cc1nc(-c2cc(-c3cncc(C(=O)N4CCCN(C)CC4)c3)ccn2)[nH]c1C` [Example 200, 2′-(4,5-Dimethyl-1H-imidazol-2-yl)-5-[(4-methyl-1,4-diazepan-1-yl)carbonyl]-3,4′-bipyridine] were, in that order, at most 500 nM and at most 500 nM.
On to `CN1CCC(CNc2cncc(-c3ccnc(-c4ncc(-c5ccccc5)[nH]4)c3)c2)CC1` [Example 144, N-((1-Methylpiperidin-4-yl)methyl)-2′-(5-phenyl-1H-imidazol-2-yl)-3,4′-bipyridin-5-amine trifluoroacetate salt], for which the IC50 in experiment [1] and in experiment [2] was at most 100 nM throughout.
On to `Cc1[nH]c(-c2cc(-c3cncc(N4CCOCC4)c3)ccn2)nc1C(=O)N[C@@H]1CCN(Cc2ccccc2)C1` [Example 280, N-[(3R)-1-Benzylpyrrolidin-3-yl]-5-methyl-2-(5-morpholin-4-yl-3,4′-bipyridin-2′-yl)-1H-imidazole-4-carboxamide trifluoroacetate salt], for which the IC50 in experiment [1] is at most 50 nM; in experiment [2] it was at most 500 nM.
The like results for `CC(=O)N1CC=C(c2ccnc(-c3nc(C)c(C)[nH]3)c2)C1` [Example 226, 1-(3-(2-(4,5-Dimethyl-1H-imidazol-2-yl)pyridin-4-yl)-2,5-dihydro-1H-pyrrol-1-yl)ethanone trifluoroacetate salt] were, in that order, above 500 nM and above 500 nM.
The like results for `O=C(Cn1cc(-c2ccnc(-c3ncc(-c4ccccc4)[nH]3)c2)cn1)N1CCCC1` [Example 50, 2-(4-(2-(5-Phenyl-1H-imidazol-2-yl)pyridin-4-yl)-1H-pyrazol-1-yl)-1-(pyrrolidin-1-yl)ethanone trifluoroacetate salt] were, in that order, above 500 nM and above 500 nM.
